Assays:
platelet factors = assay: time-dependent changes in real part of complex permittivity of blood samples having different CyD concentrations at 10 MHz; assay type: cell-based
Source text: The electrical characteristic measurement device 10 includes a measurement unit that applies a voltage between a pair of electrodes provided in a sample container filled with a blood sample to be evaluated, and measures the electrical characteristics of the blood sample over time at a specific frequency or frequency band. Examples of electrical characteristics measured by the electrical characteristic measurement device 10 include the impedance, conductance, admittance, capacitance, permittivity, conductivity, and phase angle, as well as amounts obtained by converting them into the amounts of electricity. Incidentally, the blood condition analysis system 1 of this embodiment can perform evaluation from at least one kind of these electrical characteristics, but may also utilize two or more kinds of electrical characteristics.
In the measurement step S1, the electrical characteristics of two or more blood samples adjusted from one blood specimen and having different drug types or concentrations are measured over time at a specific frequency or frequency band. At this time, the conditions for the electrical characteristic measurement are not particularly limited, and may be suitably set according to the kind of electrical characteristics and the like within a range where the blood to be evaluated is not deteriorated.
In the analysis step S2, utilizing data of time-dependent changes in the electrical characteristics measured by the electrical characteristic measurement device 10, the influence of the drug or a factor in the blood on the coagulation system or fibrinolysis system of the blood is evaluated by the blood condition analysis device 11. For example, from data of time-dependent changes in the electrical characteristic of each blood sample, parameters conventionally used for the evaluation of the coagulation system or fibrinolysis system of blood are calculated. […]
In addition, for example, in the case where the coagulation system is evaluated, examples of coagulation factors to be evaluated include platelet factors and fibrinogen. […]

platelets = assay: Example 1: complex permittivity in the process of coagulation of blood with CyD or Pefabloc at various concentrations; assay type: cell-based; conditions: sample with Pefabloc concentration 0%, FIG. 24; addition of 8 μl of CyD to 180 μl of blood; blood from a healthy individual
Description: (§1) Hereinafter, the effects of the present disclosure will be described in detail. In this example, CyD or Pefabloc was added at various concentrations to a blood sample collected from a healthy individual, and changes in the complex permittivity in the process of coagulation were measured.
(§2) As shown in the following Mathematical Formula 1, the clot firmness CF depends on the effective concentration of platelets PLT and the effective concentration of fibrinogen FIB. Incidentally, a, b, and c in the following Mathematical Formula 1 are parameters determined by measurement.
(§3) Here, by applying the analysis method shown in FIG. 8 to the data of a sample having a Pefabloc concentration of 0% shown in FIG. 24, it can be estimated that the CyD concentration at which the contribution of platelets disappears is 3.4 μg/ml (the addition of 8 μl of CyD to 180 μl of blood). As a result, the effective concentration of platelets (142000/μl) can be determined. In a similar manner, the amount of fibrinogen can be determined using the data of a sample having a CyD concentration of 0% shown in FIG. 25.

fibrinogen [1] = target: T1, fibrinogen (Homo sapiens, UniProt P02675+P02679); assay: as above; conditions: from PFG concentration dependence at CyD concentration 0, FIG. 25; blood from a healthy individual
T1 construct: from tissue; host or cells: blood sample (donor not described)
Description: as §1, §2, §3
Then, the effective concentration of platelets PLT can be estimated from data of CyD concentration dependence. In addition, the effective concentration of fibrinogen FIB can be estimated from data of PFG concentration dependence. […]

fibrinogen [2] = target: T1, fibrinogen; assay: coagulation amplitude and coagulation time of blood samples vs fibrinogen inhibitor (Pefabloc) concentration; conditions: relation to Pefabloc concentration, FIG. 15A and 15B
Source text: Further, by using a fibrinogen inhibitor, such as Pefabloc, as the drug, the influence of fibrinogen can also be evaluated. FIG. 15A is a diagram showing the relation between the fibrinogen inhibitor (Pefabloc) concentration and the coagulation amplitude, while FIG. 15B is a diagram showing the relation with the coagulation time. […] Thus, utilizing this characteristic, the influence of fibrinogen can be evaluated, or the amount of fibrinogen can be estimated.

[3] = system: fibrinolysis system of the blood; assay: complex permittivity at 10 MHz of blood samples with fibrinolysis system promotor (tPA) and inhibitor (aprotinin); conditions: aprotinin added to blood with tPA, 10 MHz, FIG. 10
Description: In addition, for example, in the case where the fibrinolysis system is evaluated, examples of coagulation factors to be evaluated include plasminogen and plasmin. In that case, as a drug to be added to the blood sample, an activator or inhibitor of plasminogen or plasmin is usable. FIG. 9 is a diagram showing time-dependent changes in the real part (∈′) of the complex permittivity at 10 MHz of blood samples having different fibrinolysis system promotor (tPA) and fibrinolysis system inhibitor (aprotinin) concentrations.
For the evaluation of the fibrinolysis-system blood, for example, a value obtained by dividing the amplitude after 30 minutes from the time B shown in FIGS. 2A-2B by the amplitude at the time B (LI30: the source of clot firmness after a predetermined period of time from the maximum firmness accompanying fibrinolysis) can be used as an evaluation parameter.

blood coagulation = assay: complex permittivity at 10 MHz of blood samples having different heparin concentrations; conditions: relation to heparin concentration, FIG. 12
Description: The blood condition analysis method of this embodiment is not limited to the evaluation criteria and evaluation methods described above. For example, it is also possible that heparin is used as the drug, and the suppressing effect of heparin on blood coagulation is evaluated. FIG. 11 is a diagram showing time-dependent changes in the real part (∈′) of the complex permittivity of blood samples having different heparin concentrations at 10 MHz, and FIG. 12 is a diagram showing the relation between the clotting time determined from the values of ∈′ at 10 MHz shown in FIG. 11 and the heparin concentration. In addition, FIG. 13 is a diagram showing the coagulation curves of blood samples having different heparin concentrations, and FIG. 14 is a diagram showing the relation between the heparin concentration and the difference in clotting time.

T1 sequence (P02671 20-629 partner limits assumed): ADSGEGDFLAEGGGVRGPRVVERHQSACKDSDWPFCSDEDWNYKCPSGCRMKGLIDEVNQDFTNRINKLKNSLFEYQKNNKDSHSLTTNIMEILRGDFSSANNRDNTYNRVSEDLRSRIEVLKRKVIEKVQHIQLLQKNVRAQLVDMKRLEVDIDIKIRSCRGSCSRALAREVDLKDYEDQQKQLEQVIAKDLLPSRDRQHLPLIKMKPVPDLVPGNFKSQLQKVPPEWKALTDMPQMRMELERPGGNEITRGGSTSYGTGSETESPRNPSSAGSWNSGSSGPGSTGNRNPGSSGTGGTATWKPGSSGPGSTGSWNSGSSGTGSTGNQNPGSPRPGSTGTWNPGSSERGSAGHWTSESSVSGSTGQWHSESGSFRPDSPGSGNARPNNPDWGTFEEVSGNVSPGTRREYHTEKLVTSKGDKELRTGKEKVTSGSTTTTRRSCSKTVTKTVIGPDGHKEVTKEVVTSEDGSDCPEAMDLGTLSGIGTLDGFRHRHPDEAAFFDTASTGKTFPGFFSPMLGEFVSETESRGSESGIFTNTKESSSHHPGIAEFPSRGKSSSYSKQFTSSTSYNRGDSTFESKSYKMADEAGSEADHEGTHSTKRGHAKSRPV
T1 sequence (P02675 31-491): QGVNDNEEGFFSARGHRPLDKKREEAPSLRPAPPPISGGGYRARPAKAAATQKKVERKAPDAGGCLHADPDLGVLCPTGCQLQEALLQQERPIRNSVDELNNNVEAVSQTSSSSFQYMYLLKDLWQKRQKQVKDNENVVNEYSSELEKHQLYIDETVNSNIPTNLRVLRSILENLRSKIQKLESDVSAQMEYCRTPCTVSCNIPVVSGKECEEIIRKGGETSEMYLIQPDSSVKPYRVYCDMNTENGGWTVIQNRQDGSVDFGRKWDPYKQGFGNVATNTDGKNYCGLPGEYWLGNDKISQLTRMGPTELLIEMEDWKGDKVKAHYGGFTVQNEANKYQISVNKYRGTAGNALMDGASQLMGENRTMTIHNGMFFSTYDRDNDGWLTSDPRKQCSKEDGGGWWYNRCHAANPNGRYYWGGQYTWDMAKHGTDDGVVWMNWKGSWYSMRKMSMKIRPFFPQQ
T1 sequence (P02679 27-433 limits assumed): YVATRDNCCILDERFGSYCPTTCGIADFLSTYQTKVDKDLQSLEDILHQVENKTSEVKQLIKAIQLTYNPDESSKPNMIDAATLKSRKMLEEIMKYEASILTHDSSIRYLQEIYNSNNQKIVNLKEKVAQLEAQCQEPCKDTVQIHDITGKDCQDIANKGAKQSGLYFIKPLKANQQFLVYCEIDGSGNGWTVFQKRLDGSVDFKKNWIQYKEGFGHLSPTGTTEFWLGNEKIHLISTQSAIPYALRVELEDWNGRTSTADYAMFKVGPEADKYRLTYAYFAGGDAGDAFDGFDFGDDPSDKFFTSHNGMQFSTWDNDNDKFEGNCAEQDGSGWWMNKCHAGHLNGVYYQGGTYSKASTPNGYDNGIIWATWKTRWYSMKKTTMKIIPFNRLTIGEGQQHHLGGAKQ

With `C=C1[C@@H](C)[C@H]2[C@H](Cc3ccccc3)NC(=O)[C@]23[C@H](OC(C)=O)/C=C/[C@@](C)(O)C(=O)[C@@H](C)C/C=C/[C@H]3[C@@H]1O` [CyD, cytochalasin D] the “amount of CyD for inhibiting the platelet factors” value (platelet factors; blood sample of FIG. 8, number of platelets 136500 per 1 μl) was 25 ng per platelet, the “minimum drug dose to completely suppress the action of platelet factors” value (platelet factors; from coagulation rate vs CyD concentration (FIG. 8), agrees with coagulation rate of blood sample containing excess CyD) was 3.3 µg/mL and the “coagulation amplitude and coagulation rate determined from the real part of the complex permittivity” value (platelet factors; relation to CyD concentration, FIG. 7 and FIG. 8) was “correlated with the CyD concentration”. The “CyD concentration at which the contribution of platelets disappears” value (platelets) was 3.4 µg/mL.

For “H-Gly-Pro-Arg-Pro-OH×AcOH (H-GPRP-OH; also: acetate salt) [Pefabloc, fibrinogen function suppressor]”, the “effective concentration of fibrinogen FIB (equivalent PFG)” value (fibrinogen [1]) was 1000 µg/mL and the “coagulation amplitude and clotting time” value (fibrinogen [2]) was “the coagulation amplitude and the clotting time change with an increase in the fibrinogen inhibitor (Pefabloc) concentration”.

aprotinin was tested, and the “LI30 (amplitude after 30 minutes from time B divided by amplitude at time B)” value [3] was “turns back to the value of the control blood sample”.

With heparin the “clotting time determined from ∈′ at 10 MHz” value (blood coagulation) was “the clotting time increases with an increase in the heparin concentration”.

Source: patent US20170030891A1, “BLOOD CONDITION ANALYSIS DEVICE, BLOOD CONDITION ANALYSIS SYSTEM, BLOOD CONDITION ANALYSIS METHOD, AND PROGRAM” (SONY CORPORATION, priority 2014, published 2017)
